# Assay results from publication PMC2712691, “Bio-Benchmarking of Electronic Nose Sensors” (PLoS ONE, 2009).
# Target: T1, dOR35a (Drosophila melanogaster, UniProt Q9V3Q2)
# T1 construct: gene Or35a; pIB-DmOr35a transiently expressed in Sf9 cells
# T1 sequence (Q9V3Q2 1-409): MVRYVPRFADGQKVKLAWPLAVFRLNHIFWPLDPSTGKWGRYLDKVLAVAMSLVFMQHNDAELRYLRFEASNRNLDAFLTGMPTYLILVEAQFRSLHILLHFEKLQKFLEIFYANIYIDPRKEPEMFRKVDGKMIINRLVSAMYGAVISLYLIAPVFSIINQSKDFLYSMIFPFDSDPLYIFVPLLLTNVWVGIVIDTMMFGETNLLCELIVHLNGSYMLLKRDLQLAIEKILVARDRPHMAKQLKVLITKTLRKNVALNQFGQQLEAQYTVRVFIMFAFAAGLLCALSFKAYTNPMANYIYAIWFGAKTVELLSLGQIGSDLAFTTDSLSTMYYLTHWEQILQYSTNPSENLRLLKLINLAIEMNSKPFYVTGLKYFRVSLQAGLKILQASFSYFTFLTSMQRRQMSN
# Assay: Fluo4 calcium imaging of receptor transiently expressed in Sf9 cells, concentration-response
# Type: cell-based
row,EC50 [nM],Structure (SMILES)
1,22.7,CCCCCCCCO [1-octanol]
2,3460,C=CC(O)CCCCC (centres unmarked) [1-octen-3-ol]
